# Experimental data reported in patent publication US4994258A, “Gamma emitting, CCK-A antagonists for pancreatic imaging” (Merck & Co., Inc., priority 1990, dated 1991).
# How the values were obtained:
# [1] = In vivo distribution of tritiated radioligand in pancreas; conditions: in vivo, iv
# Procedure: (§1) Animals were euthanized at various times (15 min to 2 hr), and organs of interest removed for assay. Biopsy samples were counted in an autogamma counter (50% counting efficiency) for ^123 I labeled radioligand. For the tritiated radioligand, in rats and rabbits, 10 to 50 mg samples of pancreas and, in rats, several regions of CNS (cortex, interpeduncular nucleus, and substantial nigra) were solubilized in protosol® (New England Nuclear). Liquid scintillation cocktail was added and the samples were dark adapted for 16 hours, then counted in a liquid scintillation counter with automatic quench correction. Results were the average of at least five animals and were expressed as % dose/g (wet weight).
# CCK-A receptors [2] = experiment: as above; conditions: pancreas, tritiated radioligand
# Procedure: as §1
# CCK-A receptors [3] = experiment: In vivo distribution after coinjection of unlabeled carboxamide (receptor-mediated binding); design: species or system rats; conditions: coinjection 0.4 mg/kg, rat pancreas (Table 3)
# Procedure: Animals were euthanized at various times (15 min to 2 hr), and organs of interest removed for assay. […] […] Liquid scintillation cocktail was added and the samples were dark adapted for 16 hours, then counted in a liquid scintillation counter with automatic quench correction. Results were the average of at least five animals and were expressed as % dose/g (wet weight).
# CCK-A receptors [4] = conditions: mice, ^3 H and ^11 C labeled, high specific activity, 4 hours post intravenous injection; cited from earlier work
# [5] = mice; cited from earlier work
# [6] = cited from earlier work
compound,measurement,setting,value
"CN1C(=O)C(NC(=O)c2cc3ccccc3[nH]2)N=C(c2ccccc2)c2ccccc21 (stereo in doubt) [[^3 H](R)-N-(2,3-dihydro-1-methyl-2-oxo-5-phenyl-1H-1,4-benzodiazepin-3-yl)-1H-indole-2-carboxamide]",tissue uptake,[1]; 1 mg/kg,0.25 %ID/g
same,tissue uptake,[1]; 10 uCi,2.1 %ID/g
same,receptor-mediated part of localization in the pancreas,CCK-A receptors [2],90%
"CN1C(=O)[C@H](NC(=O)c2cc3ccccc3[nH]2)N=C(c2ccccc2)c2ccccc21 [(R)-N-(2,3-dihydro-1-methyl-2-oxo-5-phenyl-1H-1,4-benzodiazepin-3-yl) -1H-indole-2-carboxamide, reference compound]",reduction of localization (of the [^123 I] radioligand in rat pancreas) by coinjection,CCK-A receptors [3],60-70%
"CN1C(=O)[C@@H](NC(=O)c2cc3ccccc3[nH]2)N=C(c2ccccc2)c2ccccc21 [N-(2,3 Dihydro-1-methyl-2-oxo-5-phenyl-1H-1,4-benzodiazepine-3-yl) -1H-indole-2-carboxamide]",localization in the pancreas,CCK-A receptors [4],76 % dose/gram
"Cc1cc([131I])cc(CN(C)CCCN(C)C)c1O [[^131 I]HIPDM, [^131 I]N, N, N'-trimethyl-N'-(2-hydroxy-3-methyl-5-iodobenzyl)-1,3-propanediamine]",localization in the pancreas,[5],localizes in the pancreas
C[75Se]CC[C@H](N)C(=O)O [^75 Se-selenomethionine],biological clearance,[6]; in vivo,slow biological clearance
same,tracer localizing in the pancreas,[6]; in vivo,5-7%
same,uptake in adjacent organs,[6]; primarily the liver,"high uptake in adjacent organs, primarily the liver"
